Tests used:
Assay type in all cases: cell-based, Murine
[1] = molecular target: HER2 wild type Ba/F3 cell line (Homo sapiens, UniProt P04626); assay: Ba/F3 cell proliferation MTS assay, HER2 wild type; conditions: HER2 wild type Ba/F3 cells, 72 hours
Description: (§1) Murine Ba/F3 cells engineered to express mutant and wild type EGFR or HER2 protein were used to perform single drug screens. Cell viability was assessed after 72 hours of compound exposure using the colorimetric cell proliferation MTS assay kit (Promega).
(§2) The curves were fitted using a non-linear regression model with a sigmoidal dose response.

[2] = molecular target: EGFR InsASV Ba/F3 cell line (Homo sapiens, UniProt P00533, DUP767-769, cells depend on it); assay: Ba/F3 cell proliferation MTS assay, EGFR InsASV; conditions: EGFR InsASV (V769_D770insASV) Ba/F3 cells, 72 hours
Description: (§3) Different EGFR exon 20 insertion mutations were introduced via site directed mutagenesis into full length EGFR using the Quick Change Site-Directed Mutagenesis kit (Stratagene; La Jolla, Calif.) according to the manufacturer's instructions. All constructs were confirmed by DNA sequencing. The constructs were shuttled into the retroviral vector JP1540 using the BD Creator™ System (BD Biosciences). […] Stable clones were obtained by selection in puromycin (2 μg/ml) and growth in IL-3 free media.
as §1, §2

[3] = molecular target: HER2 InsYVMA Ba/F3 cell line (Homo sapiens, UniProt P04626, DUP772-775, cells depend on it); assay: Ba/F3 cell proliferation MTS assay, HER2 InsYVMA; conditions: 72 hours;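 note: murine Ba/F3 cells engineered to carry mutant HER2, viability read colorimetrically by MTS after 72 h of exposure, EC50 from sigmoidal non-linear regression of dose response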
Sequence of HER2 InsYVMA Ba/F3 cell line (P04626 with tags, fused parts or gaps DUP772-775): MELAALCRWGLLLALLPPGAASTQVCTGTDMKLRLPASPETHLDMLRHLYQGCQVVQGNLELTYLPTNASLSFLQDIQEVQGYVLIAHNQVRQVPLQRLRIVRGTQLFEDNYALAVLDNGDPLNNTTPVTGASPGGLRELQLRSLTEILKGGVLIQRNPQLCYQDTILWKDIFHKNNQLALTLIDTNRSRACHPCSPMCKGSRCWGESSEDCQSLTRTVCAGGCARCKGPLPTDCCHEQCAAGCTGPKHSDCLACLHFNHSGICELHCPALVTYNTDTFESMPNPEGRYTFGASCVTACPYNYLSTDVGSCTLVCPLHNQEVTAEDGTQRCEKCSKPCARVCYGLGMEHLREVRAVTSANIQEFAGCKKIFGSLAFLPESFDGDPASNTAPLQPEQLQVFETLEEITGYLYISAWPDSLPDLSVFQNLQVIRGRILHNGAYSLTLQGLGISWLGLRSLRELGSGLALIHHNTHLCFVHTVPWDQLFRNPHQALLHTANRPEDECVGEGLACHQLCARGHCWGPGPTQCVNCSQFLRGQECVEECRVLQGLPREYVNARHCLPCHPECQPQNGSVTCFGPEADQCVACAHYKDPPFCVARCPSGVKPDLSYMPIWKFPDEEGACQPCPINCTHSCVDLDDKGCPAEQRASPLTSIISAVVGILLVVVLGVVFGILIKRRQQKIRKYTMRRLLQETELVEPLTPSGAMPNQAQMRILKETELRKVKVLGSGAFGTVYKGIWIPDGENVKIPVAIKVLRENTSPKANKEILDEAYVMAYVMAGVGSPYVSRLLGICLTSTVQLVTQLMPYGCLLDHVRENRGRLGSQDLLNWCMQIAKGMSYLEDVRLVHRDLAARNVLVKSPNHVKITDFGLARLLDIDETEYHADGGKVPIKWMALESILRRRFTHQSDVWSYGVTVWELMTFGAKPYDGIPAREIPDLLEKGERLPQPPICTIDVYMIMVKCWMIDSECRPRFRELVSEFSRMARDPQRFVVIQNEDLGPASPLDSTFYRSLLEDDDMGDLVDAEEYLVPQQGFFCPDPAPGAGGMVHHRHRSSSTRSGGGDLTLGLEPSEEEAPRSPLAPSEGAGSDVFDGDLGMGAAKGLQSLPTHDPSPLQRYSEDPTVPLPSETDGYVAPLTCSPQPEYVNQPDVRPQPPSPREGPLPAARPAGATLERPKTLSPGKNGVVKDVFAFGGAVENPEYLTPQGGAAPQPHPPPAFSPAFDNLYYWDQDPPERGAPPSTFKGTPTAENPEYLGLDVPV
Description: as §1, §2

[4] = molecular target: EGFR InsSVD Ba/F3 cell line (Homo sapiens, UniProt P00533, DUP768-770, cells depend on it); assay: Ba/F3 cell proliferation MTS assay, EGFR InsSVD; conditions: EGFR InsSVD (D770_N771insSVD) Ba/F3 cells, 72 hours
Description: as §3, §1, §2

[5] = molecular target: EGFR wild type Ba/F3 cell line (Homo sapiens, UniProt P00533, cells depend on it, form not given); assay: Ba/F3 cell proliferation MTS assay, EGFR wild type; conditions: 72 hours
Sequence of EGFR wild type Ba/F3 cell line (P00533 whole entry, stated change not applied): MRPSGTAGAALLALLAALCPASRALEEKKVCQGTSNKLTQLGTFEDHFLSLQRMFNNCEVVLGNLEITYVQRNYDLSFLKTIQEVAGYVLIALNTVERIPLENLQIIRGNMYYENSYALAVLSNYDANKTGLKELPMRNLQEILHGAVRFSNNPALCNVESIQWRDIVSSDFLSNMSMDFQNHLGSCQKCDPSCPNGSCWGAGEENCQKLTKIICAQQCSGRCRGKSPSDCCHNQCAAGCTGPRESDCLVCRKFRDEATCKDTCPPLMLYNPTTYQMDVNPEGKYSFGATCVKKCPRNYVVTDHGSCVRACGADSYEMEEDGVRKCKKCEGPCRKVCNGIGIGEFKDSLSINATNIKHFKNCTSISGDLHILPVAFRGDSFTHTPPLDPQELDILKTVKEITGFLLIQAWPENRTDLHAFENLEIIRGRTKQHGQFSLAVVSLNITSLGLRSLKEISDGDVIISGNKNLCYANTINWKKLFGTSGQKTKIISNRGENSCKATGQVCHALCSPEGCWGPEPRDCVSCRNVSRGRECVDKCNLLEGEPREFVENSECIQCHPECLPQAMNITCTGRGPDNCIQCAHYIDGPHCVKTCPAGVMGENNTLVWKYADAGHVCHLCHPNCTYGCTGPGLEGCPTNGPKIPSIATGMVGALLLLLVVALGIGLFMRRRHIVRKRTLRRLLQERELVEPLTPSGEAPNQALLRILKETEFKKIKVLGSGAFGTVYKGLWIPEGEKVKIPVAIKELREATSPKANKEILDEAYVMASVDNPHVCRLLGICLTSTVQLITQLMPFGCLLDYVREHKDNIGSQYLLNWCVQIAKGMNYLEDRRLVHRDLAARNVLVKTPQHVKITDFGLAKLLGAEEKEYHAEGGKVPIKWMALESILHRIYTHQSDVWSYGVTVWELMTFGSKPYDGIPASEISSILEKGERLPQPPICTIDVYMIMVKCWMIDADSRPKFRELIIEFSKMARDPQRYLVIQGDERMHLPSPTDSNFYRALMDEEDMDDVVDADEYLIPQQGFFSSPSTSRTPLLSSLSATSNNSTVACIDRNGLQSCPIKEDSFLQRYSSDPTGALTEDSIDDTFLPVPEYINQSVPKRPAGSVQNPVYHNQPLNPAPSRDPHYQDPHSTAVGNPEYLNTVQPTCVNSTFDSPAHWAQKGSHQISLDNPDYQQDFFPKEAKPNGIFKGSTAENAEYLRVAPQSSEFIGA

[6] = molecular target: EGFR InsGY Ba/F3 cell line (Homo sapiens, UniProt P00533, DELINS770-770GY, cells depend on it); assay: Ba/F3 cell proliferation MTS assay, EGFR InsGY; conditions: EGFR InsGY (D770delinsGY) Ba/F3 cells, 72 hours
Sequence of EGFR InsGY Ba/F3 cell line (P00533 with tags, fused parts or gaps DELINS770-770GY): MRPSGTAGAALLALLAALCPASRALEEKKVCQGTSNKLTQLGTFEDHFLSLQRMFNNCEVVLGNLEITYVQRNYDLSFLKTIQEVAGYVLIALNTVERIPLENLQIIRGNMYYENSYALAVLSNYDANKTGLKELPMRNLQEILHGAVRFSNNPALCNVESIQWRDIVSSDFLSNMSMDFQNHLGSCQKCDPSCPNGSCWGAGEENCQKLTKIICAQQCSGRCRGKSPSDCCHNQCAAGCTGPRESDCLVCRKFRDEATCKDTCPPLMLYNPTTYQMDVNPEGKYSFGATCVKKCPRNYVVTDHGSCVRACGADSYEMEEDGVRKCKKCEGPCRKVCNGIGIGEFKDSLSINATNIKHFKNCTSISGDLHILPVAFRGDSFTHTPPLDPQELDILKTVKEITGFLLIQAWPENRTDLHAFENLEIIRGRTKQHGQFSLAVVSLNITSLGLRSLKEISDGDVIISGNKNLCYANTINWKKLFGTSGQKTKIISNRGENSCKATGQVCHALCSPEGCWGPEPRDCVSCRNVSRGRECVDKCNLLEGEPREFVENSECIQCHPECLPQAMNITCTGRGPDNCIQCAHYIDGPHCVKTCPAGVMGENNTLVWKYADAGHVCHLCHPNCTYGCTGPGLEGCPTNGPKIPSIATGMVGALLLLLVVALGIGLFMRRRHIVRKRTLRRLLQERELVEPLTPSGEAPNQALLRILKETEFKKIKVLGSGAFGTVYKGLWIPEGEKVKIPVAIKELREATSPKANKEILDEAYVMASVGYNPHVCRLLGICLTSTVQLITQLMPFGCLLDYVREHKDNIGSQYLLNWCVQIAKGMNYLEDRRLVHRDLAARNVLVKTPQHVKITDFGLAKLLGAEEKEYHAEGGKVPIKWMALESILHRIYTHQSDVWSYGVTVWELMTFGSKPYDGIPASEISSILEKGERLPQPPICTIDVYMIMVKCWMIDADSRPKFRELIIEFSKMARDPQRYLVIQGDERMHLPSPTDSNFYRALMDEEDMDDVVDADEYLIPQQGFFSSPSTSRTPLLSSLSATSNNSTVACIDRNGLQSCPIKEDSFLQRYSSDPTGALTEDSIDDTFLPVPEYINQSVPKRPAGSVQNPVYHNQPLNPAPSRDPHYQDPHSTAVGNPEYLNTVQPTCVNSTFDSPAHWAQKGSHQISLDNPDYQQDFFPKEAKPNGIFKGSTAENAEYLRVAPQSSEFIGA
Description: as §3, §1, §2

Sequence of EGFR InsASV Ba/F3 cell line (P00533 with tags, fused parts or gaps DUP767-769): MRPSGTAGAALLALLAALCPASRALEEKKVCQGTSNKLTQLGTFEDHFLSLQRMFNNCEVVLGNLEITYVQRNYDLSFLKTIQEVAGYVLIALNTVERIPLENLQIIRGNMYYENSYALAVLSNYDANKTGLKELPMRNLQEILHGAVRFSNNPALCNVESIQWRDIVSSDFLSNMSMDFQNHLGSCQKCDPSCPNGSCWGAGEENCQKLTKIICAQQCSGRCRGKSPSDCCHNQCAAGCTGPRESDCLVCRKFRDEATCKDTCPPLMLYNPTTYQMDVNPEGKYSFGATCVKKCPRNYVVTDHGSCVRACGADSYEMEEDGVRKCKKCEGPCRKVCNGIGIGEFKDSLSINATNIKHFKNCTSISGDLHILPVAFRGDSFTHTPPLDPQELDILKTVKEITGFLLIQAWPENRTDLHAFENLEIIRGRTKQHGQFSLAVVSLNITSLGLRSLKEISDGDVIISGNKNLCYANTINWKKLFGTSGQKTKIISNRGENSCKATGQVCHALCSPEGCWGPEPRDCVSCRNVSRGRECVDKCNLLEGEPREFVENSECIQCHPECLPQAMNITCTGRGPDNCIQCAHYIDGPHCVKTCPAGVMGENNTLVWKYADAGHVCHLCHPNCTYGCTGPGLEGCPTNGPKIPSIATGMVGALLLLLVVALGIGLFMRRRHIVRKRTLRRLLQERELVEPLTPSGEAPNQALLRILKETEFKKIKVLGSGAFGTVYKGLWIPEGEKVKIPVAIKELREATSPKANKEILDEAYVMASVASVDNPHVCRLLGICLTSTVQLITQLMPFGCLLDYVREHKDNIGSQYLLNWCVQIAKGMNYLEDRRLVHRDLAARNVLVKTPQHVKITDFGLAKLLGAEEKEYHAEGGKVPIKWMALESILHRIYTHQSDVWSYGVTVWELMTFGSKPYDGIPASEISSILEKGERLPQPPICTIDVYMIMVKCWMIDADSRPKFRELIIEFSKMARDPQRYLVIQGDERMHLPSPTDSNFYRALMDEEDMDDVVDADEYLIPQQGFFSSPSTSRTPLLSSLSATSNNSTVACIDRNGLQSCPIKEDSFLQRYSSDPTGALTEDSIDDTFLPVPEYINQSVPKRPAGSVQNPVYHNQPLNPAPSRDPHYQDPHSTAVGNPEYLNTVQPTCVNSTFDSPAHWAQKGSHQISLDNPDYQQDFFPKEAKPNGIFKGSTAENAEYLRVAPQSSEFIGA

An EC50 [1] of under 100 nM, an EC50 [2] of 100 to 500 nM and an EC50 [3] of under 100 nM were found for `C=CC(=O)Nc1cccc(N(C(=O)OCc2ccccc2)c2ccnc(Nc3ccn(C)n3)n2)c1` [Compound I-1, benzyl (3-acrylamidophenyl)(2-((1-methyl-1H-pyrazol-3-yl)amino)pyrimidin-4-yl)carbamate] in this work. For the same molecule, the EC50 [4] was under 100 nM, the EC50 [5] was under 100 nM and the EC50 [6] was under 100 nM.
An EC50 [1] of under 100 nM, an EC50 [3] of 100 to 500 nM and an EC50 [4] of under 100 nM were found for `C=CC(=O)Nc1cccc(N(C(=O)OCc2cccc(F)c2)c2ccnc(Nc3ccn(C)n3)n2)c1` [Compound I-2, 3-fluorobenzyl (3-acrylamidophenyl)(2-((1-methyl-1H-pyrazol-3-yl)amino)pyrimidin-4-yl)carbamate] in this work. The EC50 [5] was under 100 nM and the EC50 [6] was under 100 nM.
An EC50 [1] of under 100 nM, an EC50 [3] of under 100 nM and an EC50 [4] of under 100 nM were found for `C=CC(=O)Nc1cccc(N(C(=O)OCc2cccc(F)c2)c2ccnc(Nc3cnn(C)c3)n2)c1` [Compound I-3, 3-fluorobenzyl (3-acrylamidophenyl)(2-((1-methyl-1H-pyrazol-4-yl)amino)pyrimidin-4-yl)carbamate] in this work. For the same molecule, the EC50 [5] was under 100 nM and the EC50 [6] was under 100 nM.
An EC50 [1] of under 100 nM, an EC50 [3] of under 100 nM and an EC50 [4] of under 100 nM were found for `C=CC(=O)Nc1cccc(N(C(=O)OCc2ccc(F)cc2)c2ccnc(Nc3ccn(C)n3)n2)c1` [Compound I-4, 4-fluorobenzyl (3-acrylamidophenyl)(2-((1-methyl-1H-pyrazol-3-yl)amino)pyrimidin-4-yl)carbamate] in this work. For the same molecule, the EC50 [5] was under 100 nM and the EC50 [6] was under 100 nM.
An EC50 [1] of under 100 nM, an EC50 [3] of under 100 nM and an EC50 [4] of under 100 nM were found for `C=CC(=O)Nc1cccc(N(C(=O)OCc2ccc(F)cc2)c2ccnc(Nc3cnn(C)c3)n2)c1` [Compound I-5, 4-fluorobenzyl (3-acrylamidophenyl)(2-((1-methyl-1H-pyrazol-4-yl)amino)pyrimidin-4-yl)carbamate] in this work. For the same molecule, the EC50 [5] was under 100 nM and the EC50 [6] was under 100 nM.
An EC50 [1] of 500 to 1000 nM, an EC50 [3] of over 1000 nM and an EC50 [4] of 500 to 1000 nM were found for `C=CC(=O)Nc1cccc(N(C(=O)OCc2cc3ccccc3s2)c2ccnc(Nc3ccn(C)n3)n2)c1` [Compound I-6, benzo[b]thiophen-2-ylmethyl (3-acrylamidophenyl)(2-((1-methyl-1H-pyrazol-3-yl)amino)pyrimidin-4-yl)carbamate] in this work. For the same molecule, the EC50 [5] was 500 to 1000 nM and the EC50 [6] was 100 to 500 nM.
An EC50 [1] of 100 to 500 nM, an EC50 [3] of 500 to 1000 nM and an EC50 [4] of 100 to 500 nM were found for `C=CC(=O)Nc1cccc(N(C(=O)OCc2cc3ccccc3s2)c2ccnc(Nc3cnn(C)c3)n2)c1` [Compound I-7, benzo[b]thiophen-2-ylmethyl (3-acrylamidophenyl)(2-((1-methyl-1H-pyrazol-4-yl)amino)pyrimidin-4-yl)carbamate] in this work. It also gave an EC50 [5] of 100 to 500 nM and an EC50 [6] of under 100 nM.
An EC50 [1] of 100 to 500 nM, an EC50 [2] of over 1000 nM and an EC50 [3] of over 1000 nM were found for `C=CC(=O)Nc1cccc(N(C(=O)OCc2ccc(Cl)cc2)c2ccnc(Nc3ccn(C)n3)n2)c1` [Compound I-8, 4-chlorobenzyl (3-acrylamidophenyl)(2-((1-methyl-1H-pyrazol-3-yl)amino)pyrimidin-4-yl)carbamate] in this work. The EC50 [4] was over 1000 nM, the EC50 [5] was 100 to 500 nM and the EC50 [6] was 100 to 500 nM.
An EC50 [1] of 500 to 1000 nM, an EC50 [2] of over 1000 nM and an EC50 [4] of 500 to 1000 nM were found for `C=CC(=O)Nc1cccc(N(C(=O)O[C@H](C)c2ccc(F)cc2)c2ccnc(Nc3ccn(C)n3)n2)c1` [Compound I-14, (R)-1-(4-fluorophenyl)ethyl (3-acrylamidophenyl)(2-((1-methyl-1H-pyrazol-3-yl)amino)pyrimidin-4-yl)carbamate] in this work. It also gave an EC50 [5] of 100 to 500 nM and an EC50 [6] of 500 to 1000 nM.
An EC50 [1] of over 1000 nM, an EC50 [5] of over 1000 nM and an EC50 [6] of over 1000 nM were found for `C=CC(=O)Nc1cccc(N(C(=O)OCc2csc3ccccc23)c2ccnc(Nc3ccn(C)n3)n2)c1` [Compound I-18, benzo[b]thiophen-3-ylmethyl (3-acrylamidophenyl)(2-((1-methyl-1H-pyrazol-3-yl)amino)pyrimidin-4-yl)carbamate] in this work.
An EC50 [1] of under 100 nM, an EC50 [3] of under 100 nM and an EC50 [4] of 100 to 500 nM were found for `C=CC(=O)Nc1cccc(N(C(=O)OCc2ccc(F)cc2)c2ccnc(Nc3cnn(CCN4CCOCC4)c3)n2)c1` [Compound I-20, 4-fluorobenzyl (3-acrylamidophenyl)(2-((1-(2-morpholinoethyl)-1H-pyrazol-4-yl)amino)pyrimidin-4-yl)carbamate] in this work. For the same molecule, the EC50 [5] was under 100 nM and the EC50 [6] was under 100 nM.
An EC50 [1] of under 100 nM, an EC50 [3] of under 100 nM and an EC50 [4] of under 100 nM were found for `C=CC(=O)Nc1cccc(N(C(=O)OCc2ccc(F)cc2)c2ccnc(Nc3cnn(C)c3C)n2)c1` [Compound I-22, 4-fluorobenzyl (3-acrylamidophenyl)(2-((1,5-dimethyl-1H-pyrazol-4-yl)amino)pyrimidin-4-yl)carbamate] in this work. It also gave an EC50 [5] of under 100 nM and an EC50 [6] of under 100 nM.
An EC50 [1] of under 100 nM, an EC50 [3] of 100 to 500 nM and an EC50 [4] of 100 to 500 nM were found for `C=CC(=O)Nc1cccc(N(C(=O)OCc2ccc(F)cc2)c2ccnc(Nc3cnn(C)c3C(F)(F)F)n2)c1` [Compound I-23, 4-fluorobenzyl (3-acrylamidophenyl)(2-((1-methyl-5-(trifluoromethyl)-1H-pyrazol-4-yl)amino)pyrimidin-4-yl)carbamate] in this work. The EC50 [5] was under 100 nM and the EC50 [6] was 100 to 500 nM.
An EC50 [1] of under 100 nM, an EC50 [3] of under 100 nM and an EC50 [4] of 500 to 1000 nM were found for `Cn1cc(Nc2nccc(N(C(=O)OCc3ccc(F)cc3)c3cccc(NC(=O)/C=C/CN4CCCCC4)c3)n2)cn1` [Compound I-24, 4-fluorobenzyl (E)-(2-((1-methyl-1H-pyrazol-4-yl)amino)pyrimidin-4-yl)(3-(4-(piperidin-1-yl)but-2-enamido)phenyl)carbamate] in this work. It also gave an EC50 [5] of under 100 nM and an EC50 [6] of 100 to 500 nM.
An EC50 [1] of 100 to 500 nM, an EC50 [3] of over 1000 nM and an EC50 [5] of 100 to 500 nM were found for `Cn1cc(Nc2nccc(N(C(=O)OCc3ccc(F)cc3)c3cccc(NC(=O)/C=C/CN4CCC(O)CC4)c3)n2)cn1` [Compound I-25, 4-fluorobenzyl (E)-(3-(4-(4-hydroxypiperidin-1-yl)but-2-enamido)phenyl)(2-((1-methyl-1H-pyrazol-4-yl)amino)pyrimidin-4-yl)carbamate] in this work.
An EC50 [1] of under 100 nM, an EC50 [3] of 100 to 500 nM and an EC50 [4] of 500 to 1000 nM were found for `Cn1cc(Nc2nccc(N(C(=O)OCc3ccc(F)cc3)c3cccc(NC(=O)/C=C/CN4CCOCC4)c3)n2)cn1` [Compound I-26, 4-fluorobenzyl (E)-(2-((1-methyl-1H-pyrazol-4-yl)amino)pyrimidin-4-yl)(3-(4-morpholinobut-2-enamido)phenyl)carbamate] in this work. It also gave an EC50 [5] of under 100 nM and an EC50 [6] of 100 to 500 nM.
An EC50 [1] of under 100 nM, an EC50 [3] of under 100 nM and an EC50 [4] of 500 to 1000 nM were found for `Cn1cc(Nc2nccc(N(C(=O)OCc3ccc(F)cc3)c3cccc(NC(=O)/C=C/CN4CCCCCC4)c3)n2)cn1` [Compound I-27, 4-fluorobenzyl (E)-(3-(4-(azepan-1-yl)but-2-enamido)phenyl)(2-((1-methyl-1H-pyrazol-4-yl)amino)pyrimidin-4-yl)carbamate] in this work. For the same molecule, the EC50 [5] was under 100 nM and the EC50 [6] was 500 to 1000 nM.
An EC50 [1] of under 100 nM, an EC50 [3] of under 100 nM and an EC50 [4] of over 1000 nM were found for `CN(C)C/C=C/C(=O)Nc1cccc(N(C(=O)OCc2ccc(F)cc2)c2ccnc(Nc3cnn(C)c3)n2)c1` [Compound I-28, 4-fluorobenzyl (E)-(3-(4-(dimethylamino)but-2-enamido)phenyl)(2-((1-methyl-1H-pyrazol-4-yl)amino)pyrimidin-4-yl)carbamate] in this work. For the same molecule, the EC50 [5] was under 100 nM and the EC50 [6] was 500 to 1000 nM.
An EC50 [1] of under 100 nM, an EC50 [3] of under 100 nM and an EC50 [4] of under 100 nM were found for `C=CC(=O)Nc1cccc(N(C(=O)OCc2ccc(F)cc2F)c2ccnc(Nc3cnn(C)c3)n2)c1` [Compound I-29, 2,4-difluorobenzyl (3-acrylamidophenyl)(2-((1-methyl-1H-pyrazol-4-yl)amino)pyrimidin-4-yl)carbamate] in this work. For the same molecule, the EC50 [5] was under 100 nM and the EC50 [6] was under 100 nM.
An EC50 [1] of under 100 nM, an EC50 [3] of under 100 nM and an EC50 [4] of under 100 nM were found for `C=CC(=O)Nc1cccc(N(C(=O)OCc2ccc(F)cc2)c2ccnc(Nc3cnn(C4CCN(C)CC4)c3)n2)c1` [Compound I-30, 4-fluorobenzyl (3-acrylamidophenyl)(2-((1-(1-methylpiperidin-4-yl)-1H-pyrazol-4-yl)amino)pyrimidin-4-yl)carbamate] in this work. It also gave an EC50 [5] of under 100 nM and an EC50 [6] of under 100 nM.
An EC50 [1] of under 100 nM, an EC50 [3] of under 100 nM and an EC50 [4] of 100 to 500 nM were found for `C=CC(=O)Nc1cccc(N(C(=O)OCc2ccc(F)cc2)c2ccnc(Nc3cnn(CC(=O)NC)c3)n2)c1` [Compound I-31, 4-fluorobenzyl (3-acrylamidophenyl)(2-((1-(2-(methylamino)-2-oxoethyl)-1H-pyrazol-4-yl)amino)pyrimidin-4-yl)carbamate] in this work. For the same molecule, the EC50 [5] was under 100 nM and the EC50 [6] was 100 to 500 nM.
An EC50 [1] of under 100 nM, an EC50 [3] of under 100 nM and an EC50 [4] of under 100 nM were found for `C=CC(=O)Nc1cccc(N(C(=O)OCc2ccc(F)cc2)c2ccnc(Nc3cnn(C4CCN(C)C4)c3)n2)c1` (stereo not drawn) [Compound I-32, 4-fluorobenzyl (3-acrylamidophenyl)(2-((1-(1-methylpyrrolidin-3-yl)-1H-pyrazol-4-yl)amino)pyrimidin-4-yl)carbamate] in this work. It also gave an EC50 [5] of under 100 nM and an EC50 [6] of under 100 nM.

— patent US10550112B2, “Pyrimidines as EGFR inhibitors and methods of treating disorders” (Dana-Farber Cancer Institute, Inc., priority 2015, dated 2020)
